Measurements from patent US20250145722A1, “ANTI-GAL3 ANTIBODIES AND METHODS OF USE” (TrueBinding, Inc., priority 2020, published 2025).

Molecular target: T1, interaction of Gal3 and Abeta (1-42) oligomer (Homo sapiens, UniProt P17931)
T1 construct: His
Assay: Gal3-Abeta (1-42) oligomer blocking ELISA
Assay type: binding
Settings: at 10,000 nM
Protocol: To identify Gal3-targeted antibodies with the ability to block the interaction of Gal3 and Abeta, purified Gal3 and Abeta (1-42) peptide and oligomer were incubated in the presence (or absence) of various Gal3-targeted or control antibodies, or without antibody, and protein interaction was evaluated by ELISA.
The plate was incubated for an hour at room temperature with gentle rocking. Thereafter, the plate was washed three times with PBST. […] The plate was incubated at room temperature for an hour with gentle rocking and then washed three times with PBST. […] Percent blockade of Gal3-Abeta (1-42) peptide or oligomer interaction was calculated as the fraction of signal obtained in the absence of antibody with the background signal subtracted.
The plate was incubated for an hour at room temperature with gentle rocking. Thereafter, the plate was washed three times with PBST. […] The plate was incubated at room temperature for an hour with gentle rocking and then washed three times with PBST. […] Percent blockade of Gal3-Abeta (1-42) oligomer interaction was calculated as the fraction of signal obtained in the absence of antibody or inhibitor with the background signal subtracted.

T1 sequence (P17931 2-250 limits assumed): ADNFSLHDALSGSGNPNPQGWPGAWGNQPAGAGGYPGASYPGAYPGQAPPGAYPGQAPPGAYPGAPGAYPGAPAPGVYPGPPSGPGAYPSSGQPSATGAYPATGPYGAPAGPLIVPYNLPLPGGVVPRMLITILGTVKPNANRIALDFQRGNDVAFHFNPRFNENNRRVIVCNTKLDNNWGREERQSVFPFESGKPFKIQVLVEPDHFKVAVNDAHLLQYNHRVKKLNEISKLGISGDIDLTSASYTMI

OC[C@H]1O[C@@H](S[C@@H]2O[C@H](CO)[C@H](O)[C@H](n3cc(-c4cccc(F)c4)nn3)[C@H]2O)[C@H](O)[C@@H](n2cc(-c3cccc(F)c3)nn2)[C@H]1O [TD139]
Percent blockade of Gal3-Abeta (1-42) oligomer interaction: at most 19%
